The source of these data is patent US20110250292A1, “COMPOSITION FOR IMPROVING RA[…] CANCER” (CHONJISAN CO., LTD., priority 2008, published 2011).

Data set [1] deals with Meth-A tumor (WEHI164 fibrosarcoma). Description: Irradiation and tetra-arsenic oxide treatment on Balb/c mouse having Meth-A tumor (tumor volume). The data set is classed as in vivo. The following applies: 8 mg/kg once into abdominal cavity 1 hour after single local irradiation; 6 mice; FIG. 1; *p<0.05. The procedure:
(§1) Balb/c, and Balb/c, nu/nu female mice (weight: 20 to 25 g, age: 6 to 8 weeks) were obtained from Orient bio (Taejun, Korea), and WEHI164 tumor cell line (derived from Meth-A-induced fibrosarcoma) and FaDu tumor cell line (derived from human nasopharyngeal squamous cell carcinoma) were bought from KCCB (Seoul, Korea). WEHI164 cells (5×10^5) or FaDu cells (1×10^6) in MEM 50 μl were hypodermically injected into a rear leg of a Balb/c or Balb/c nu/nu mouse, and then the growth of a tumor was observed.
(§2) Tetra-arsenic oxide obtained from Genew Science (Seoul, Korea) was placed in distilled water, and continuously stilled and dissolved. The resultant liquid was stored as a stock liquid at 4° C. The stock liquid was diluted with a phosphoric acid buffer solution in such a manner as to have a final concentration of 0.5 mg/ml.
In order to minimize acute arsenic toxicity, dextrose was added with a final concentration of 5% (F. X. Reichl, H. Kreppel, L. Szinicz, B. Fichtl, and W. Forth, Reduction of arsenic trioxide toxicity in mice by repeated treatment with glucose. Arch Toxicol Suppl 14 (1991) 225-7).
In irradiation, a cobalt-60 unit (Theratron 780; AECL, Kanata, Ontarino, Canada) was used. […]
A change in the tumor size was measured by calipers twice to three times per week. A tumor volume was calculated by a×b×h/2 (a=minimum length, b=maximum length, h=height). […]

Data set [2] concerns human nasopharyngeal squamous cell carcinoma (FaDu). The data set is described as follows: Fractional irradiation and tetra-arsenic oxide treatment on Balb/c nu/nu mouse having human nasopharyngeal squamous cell carcinoma (tumor volume). It is filed as in vivo. The following applies: 8 mg/kg through abdominal cavity; fractional irradiation 12 Gy 4 times per week for 4 weeks; FIG. 3. The procedure: as §1, §2
(§3) In order to minimize acute arsenic toxicity, dextrose was added with a final concentration of 5% (F. X. Reichl, H. Kreppel, L. Szinicz, B. Fichtl, and W. Forth, Reduction of arsenic trioxide toxicity in mice by repeated treatment with glucose. Arch Toxicol Suppl 14 (1991) 225-7). […]
(§4) A tumor volume was measured twice to three times per week. The tumor size was measured by calipers, and the tumor volume was calculated by a×b×h/2 (a=minimum length, b=maximum length, h=height). […]

For data set [3] the following is noted: M. J. Park et al., Int. J. Oncol. 22, 2003; cited from earlier work.
Data set [4] relates to human nasopharyngeal squamous cell carcinoma (FaDu). Description: Single irradiation and tetra-arsenic oxide treatment on Balb/c nu/nu mouse having human nasopharyngeal squamous cell carcinoma (tumor volume). It is filed as in vivo. The following applies: FIGS. 2 and 3. How it is done:
as §1, §2, §3, §4

The conditions of data set [5]: oral dosage form; Z. X. Shen et al., Blood 89 (1997); cited from earlier work.

For `O1[As]2O[As]3O[As]1O[As](O2)O3` [tetra-arsenic oxide, 2,4,6,8,9,10-Hexaoxa-1,3,5,7-tetraarsatricyclo [3.3.1.1^3,7]decane], in data set [1], the “growth of tumor (tumor volume), combination with irradiation compared to irradiation alone” value is recorded as “significantly reduced the growth of tumor”. Further, the “radiosensitizer effect on tumor volume with fractional irradiation” value in data set [2] is “significant effect as a radiosensitizer”. Moreover, the “toxicity on oral administration” value in data set [3] is given as “very low toxicity”. For the same molecule, the “tumor growth inhibition, separate treatment of tetra-arsenic oxide compared to control group” value in data set [4] (8 mg/kg once through abdominal cavity, no irradiation) is “hardly has an effect on tumor growth inhibition”. Besides, the “tumor growth, combination with irradiation compared to irradiation alone” value in data set [4] (8 mg/kg through abdominal cavity plus local irradiation) was “significantly reducing tumor growth”.
With arsenic trioxide, in data set [5], the “gastrointestinal toxicity on oral administration” value was “serious gastrointestinal toxicity”.
